Assay results taken from paper PMC8397297 (ACS Chemical Neuroscience, 2021).
“Also recorded” adds a separate entry of the source.

What was measured:
mGAT2 = biological target: T1, mGAT2 (Mus musculus, UniProt P31651); test: [3H]GABA uptake assay in HEK-293 cells stably expressing mGAT2; assay type: cell-based; conditions: [3H]GABA uptake; read-out: pIC50 ± SEM mGAT2 (converted)
T1 construct: expressed in transfected cells; host or cells: HEK-293
T1 sequence (P31651 1-614): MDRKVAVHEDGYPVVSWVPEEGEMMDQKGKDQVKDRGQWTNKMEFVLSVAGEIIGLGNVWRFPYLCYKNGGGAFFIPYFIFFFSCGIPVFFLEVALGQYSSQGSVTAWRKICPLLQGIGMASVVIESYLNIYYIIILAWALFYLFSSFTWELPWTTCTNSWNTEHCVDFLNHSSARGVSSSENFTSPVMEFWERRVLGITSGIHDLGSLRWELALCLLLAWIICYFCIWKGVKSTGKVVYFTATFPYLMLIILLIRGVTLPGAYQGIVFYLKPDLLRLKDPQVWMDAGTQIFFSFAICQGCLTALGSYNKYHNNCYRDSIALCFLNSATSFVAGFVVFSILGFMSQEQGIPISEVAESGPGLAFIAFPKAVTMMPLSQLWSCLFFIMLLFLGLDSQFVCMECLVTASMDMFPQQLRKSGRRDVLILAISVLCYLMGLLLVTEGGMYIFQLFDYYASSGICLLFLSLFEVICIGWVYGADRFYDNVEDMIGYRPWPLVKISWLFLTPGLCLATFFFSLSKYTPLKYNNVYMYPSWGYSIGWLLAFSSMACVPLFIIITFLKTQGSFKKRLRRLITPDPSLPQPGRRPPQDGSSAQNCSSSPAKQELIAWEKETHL

mGAT4 = biological target: T2, mGAT4 (Mus musculus, UniProt P31650); test: [3H]GABA uptake assay in HEK-293 cells stably expressing mGAT4; assay type: cell-based; conditions: [3H]GABA uptake; read-out: pIC50 ± SEM mGAT4 (converted)
T2 construct: expressed in transfected cells; host or cells: HEK-293
T2 sequence (P31650 1-627): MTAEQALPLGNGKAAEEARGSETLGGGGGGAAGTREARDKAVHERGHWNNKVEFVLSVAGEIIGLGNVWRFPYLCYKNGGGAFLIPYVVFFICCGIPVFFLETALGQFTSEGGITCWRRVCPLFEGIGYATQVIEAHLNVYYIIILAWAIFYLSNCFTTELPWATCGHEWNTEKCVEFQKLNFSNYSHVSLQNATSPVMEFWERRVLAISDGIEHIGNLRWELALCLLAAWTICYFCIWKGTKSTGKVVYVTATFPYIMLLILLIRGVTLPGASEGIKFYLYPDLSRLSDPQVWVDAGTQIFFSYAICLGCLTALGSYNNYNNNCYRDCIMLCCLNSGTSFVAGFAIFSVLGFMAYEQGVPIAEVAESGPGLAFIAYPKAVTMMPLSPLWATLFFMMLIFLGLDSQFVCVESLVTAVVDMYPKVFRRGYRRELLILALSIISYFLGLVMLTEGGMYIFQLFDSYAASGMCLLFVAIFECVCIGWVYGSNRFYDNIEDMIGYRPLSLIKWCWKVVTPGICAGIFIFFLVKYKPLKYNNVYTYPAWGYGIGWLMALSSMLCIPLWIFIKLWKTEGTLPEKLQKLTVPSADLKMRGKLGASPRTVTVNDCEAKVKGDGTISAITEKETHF

mGAT1 = biological target: T3, mGAT1 (Mus musculus, UniProt P31648); test: competitive MS binding assay with NO711 as unlabeled marker (LC-ESI-MS/MS); conditions: for remaining NO711 binding mGAT1: in the presence of 100 μM inhibitor
T3 construct: expressed in transfected cells; host or cells: HEK-293
Procedure, shortened: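 Competitive MS binding with unlabeled NO711 as marker, quantified by LC–ESI-MS/MS. Compounds screened at 100 μM for inhibition of marker binding.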

oxaliplatin-treated mice [1] = test: oxaliplatin-induced peripheral neuropathy, tactile allodynia (von Frey test); assay type: in vivo, mouse
Description: (§1) Before the in vivo tests, the test compounds were suspended in 1% Tween 80 (Baxter, Poland). The compounds were then administered intraperitoneally. […] The test compounds were administered only once daily on days 1 and 7 of oxaliplatin- or paclitaxel-induced neuropathy. In STZ-treated mice, test compounds were administered 21 days after STZ injection. Control mice used in oxaliplatin and paclitaxel NP models were injected with an appropriate amount of vehicle (0.9% saline). Oxaliplatin was purchased from Activate Scientific GmbH (Germany). Paclitaxel and STZ were purchased from Sigma-Aldrich (Poland).
(§2) For pain studies, oxaliplatin was dissolved in 5% glucose solution (Polfa Kutno, Poland). The dose of oxaliplatin used to induce peripheral neuropathy (10 mg/kg, intraperitoneal injection) was chosen on the basis of previous research[63],[64] and available literature data.[65]
The ability of the test compounds to attenuate tactile allodynia caused by oxaliplatin, paclitaxel, and STZ was assessed using the von Frey test. For this purpose, 3 h after oxaliplatin or paclitaxel and 21 days after STZ injection, the predrug paw withdrawal threshold was measured for each mouse. Then, the test compounds were administered, and 1 h later, the postdrug paw withdrawal threshold was collected for each animal. This part of the experiment aimed to establish the effect of treatment on early phase (acute) pain hypersensitivity induced by cytotoxic drugs. Additionally, in the oxaliplatin model and the paclitaxel model, to assess the effect of test compounds on late phase tactile allodynia, 7 days later, measurements of the predrug and postdrug paw withdrawal thresholds were made in a similar manner to the measurements performed during early phase neuropathy. At this stage of the experiment, there was no additional oxaliplatin/paclitaxel administration.
An electronic von Frey unit (Bioseb, France) was used to assess the mechanical nociceptive threshold (tactile allodynia) in mice. This device has a single flexible filament that applies increasing force (from 0 to 10 g) against the plantar surface of the hind paw of each mouse. In the von Frey test, the paw withdrawal response of the animals automatically turns off the stimulus, and the mechanical pressure that evokes this response is recorded. On the day of the experiment, the mice were placed individually in test compartments with a wire mesh bottom and left there for 1 h of habituation. Subsequently, to obtain baseline values, each mouse was tested 3 times alternately in each hind paw. Then, the test compounds were administered, and 1 h later, 3 additional measurements were taken and averaged to obtain the mean postdrug values for each mouse.[69]

oxaliplatin-treated mice [2] = test: oxaliplatin-induced peripheral neuropathy, cold hyperalgesia (cold plate test); assay type: in vivo, mouse
Description: as §1, §2
A cold plate apparatus (hot/cold plate, Bioseb, France) set at 2.5 °C was used to assess the effect of treatment on cold hyperalgesia in oxaliplatin-treated mice. The cold plate test was conducted immediately after the von Frey test. Three hours after oxaliplatin administration, the animals were placed on a cold plate apparatus, and predrug latencies to pain reaction (i.e., lifting, biting, shaking of hind paws, jumping, movement deficits, or writhing response) were collected. Finally, the test compounds were injected, and 1 h later, the postdrug latencies to pain reaction were measured.

[3] = early (acute) phase of oxaliplatin-induced neuropathy, i.p., 50a and 56a at both doses (10 and 30 mg/kg)
[4] = early phase of oxaliplatin-induced neuropathy, i.p.

SMILES	IC50 (mGAT2)	IC50 (mGAT4)	remaining NO711 binding mGAT1 (mGAT1)	effect on mechanical nociceptive threshold (tactile allodynia), von Frey test (oxaliplatin-treated mice [1]; [3])	effect on cold hyperalgesia, cold plate test (oxaliplatin-treated mice [2]; [4])	Ki (mGAT1; MS binding assay, read-out: pKi ± SEM mGAT1 (converted))	effect on mechanical nociceptive threshold (tactile allodynia), von Frey test (oxaliplatin-treated mice [1]; late phase (7 days after oxaliplatin), 10 mg/kg i.p., 10 mg/kg)	effect on cold hyperalgesia, cold plate test (oxaliplatin-treated mice [2]; early (acute) phase of oxaliplatin-induced neuropathy, 30 mg/kg i.p., 30 mg/kg)
Cc1ccc(CNC(=O)[C@@H](C[C@@H](C)O)N(C)CCC=C2c3ccccc3CCc3ccccc32)cc1 (relative stereo) [Compound 2RS,4RS-39c, 2-((3-(10,11-Dihydro-5H-dibenzo[a,d][7]annulen-5-ylidene)propyl)(methyl)amino)-4-hydroxy-N-(4-methylbenzyl)pentanamide]	20.4 µM	4.37 µM	100 μM: 69%	not effective	not effective	–	–	–
CN(CCON=C(c1ccccc1)c1ccccc1)C(CCN)C(=O)NCc1ccccc1Cl (stereo not shown) [Compound 50a, 4-Amino-N-[(2-chlorophenyl)methyl]-2-[(2-{[(diphenylmethylidene)amino]oxy}ethyl)(methyl)amino]butanamide]	3.72 µM	20.4 µM	–	significantly elevated the pain threshold for mechanical stimulation; also recorded: showed antiallodynic properties	not effective	33.1 µM	–	–
CN(CCC=C1c2ccccc2CCc2ccccc21)C(CO)C(=O)NCc1ccccc1 (stereo not shown) [Compound 56a, N-Benzyl-2-((3-(10,11-dihydro-5H-dibenzo[a,d][7]annulen-5-ylidene)propyl)(methyl)amino)-3-hydroxypropanamide]	27.5 µM	9.12 µM	100 μM: 68%	reduced tactile allodynia; also recorded: showed antiallodynic properties	–	–	showed antiallodynic properties in the acute and late phases	reduced cold hyperalgesia in the acute phase
